Assay results as given in publication PMC5413048, “Palmitic acid is a toll-like receptor 4 ligand that induces human dendritic cell secretion of IL-1β” (PLoS ONE, 2017).
pKd: −log10 of the molar value.

Target: T1, MD-2 (TLR4/MD-2 complex) (Homo sapiens, UniProt Q9Y6Y9)
T1 construct: gene LY96; MD2 Glu17—Asn160 + 10-His Tag, co-expressed with TLR4 ectodomain Glu24—Lys631 + 10-His Tag; with TLR4 (O00206), ectodomain Glu24—Lys631
Assay: isothermal titration calorimetry of PA into recombinant human TLR4/MD-2 ([…]°C)
Assay type: binding

T1 sequence (Q9Y6Y9 17-160): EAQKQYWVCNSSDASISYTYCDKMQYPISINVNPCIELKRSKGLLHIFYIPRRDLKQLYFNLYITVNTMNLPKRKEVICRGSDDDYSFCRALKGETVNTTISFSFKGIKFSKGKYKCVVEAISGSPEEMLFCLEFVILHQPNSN
T1 sequence (O00206 24-631 partner): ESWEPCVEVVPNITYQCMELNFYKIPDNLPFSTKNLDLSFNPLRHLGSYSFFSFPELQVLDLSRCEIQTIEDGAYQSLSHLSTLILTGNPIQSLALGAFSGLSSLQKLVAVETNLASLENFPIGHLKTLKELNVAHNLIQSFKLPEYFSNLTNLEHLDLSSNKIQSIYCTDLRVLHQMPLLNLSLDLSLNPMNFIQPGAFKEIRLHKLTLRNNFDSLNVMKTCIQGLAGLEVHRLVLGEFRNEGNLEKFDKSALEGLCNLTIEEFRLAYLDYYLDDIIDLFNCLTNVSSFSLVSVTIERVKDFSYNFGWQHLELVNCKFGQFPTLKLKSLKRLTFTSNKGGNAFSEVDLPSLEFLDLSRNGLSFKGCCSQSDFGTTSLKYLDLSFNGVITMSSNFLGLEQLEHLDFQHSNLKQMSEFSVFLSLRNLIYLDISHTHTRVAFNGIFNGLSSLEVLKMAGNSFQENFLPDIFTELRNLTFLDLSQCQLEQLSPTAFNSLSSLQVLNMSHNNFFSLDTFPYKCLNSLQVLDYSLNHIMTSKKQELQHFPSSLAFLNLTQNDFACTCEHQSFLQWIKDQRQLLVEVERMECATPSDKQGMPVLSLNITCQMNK

CCCCCCCCCCCCCCCC(=O)O [PA, palmitic acid]
pKd: 5.64
